{
  "source": "patent US12195762B2",
  "about": "“Induction of pluripotent cells” (The Scripps Research Institute, priority 2009, dated 2025)",
  "key": {"[1]": {"system": "NHEKs, Neonatal Human Epidermal Keratinocytes", "assay": "Reprogramming of NHEKs (TRA-1-81 positive iPSC colonies)", "assay_type": "cell-based", "details": "for generation of iPSCs / enhancement of reprogramming under OK condition (in words): 2TFs (OK)", "method": "NHEKs were cultured in a 100 mm tissue culture dish and transduced 3 times (3-4 hours each transduction) with freshly produced lentivirus supernatants. 1,000,000 transduced NHEKs were seeded on the irradiated x-ray inactivated CF1 MEF feeder cells in a 100-mm dish and cultured in KCM and treated with 5 μM PS48, 0.25 mM NaB (Stemgent) and 0.5 μM A-83-01 (Stemgent) for 2 weeks, followed by changing half volume of media to hESCM and supplementing with 5 μM PS48, 0.25 mM NaB and 0.5 μM A-83-01 for another 2 weeks. Then cell culture media were changed to hESCM and supplemented with 5 μM PS48, 0.25 mM NaB, 0.5 μM A-83-01 and 0.5 μM PD0325901 (Stemgent) for additional four weeks. The same OCT4 infected keratinocytes cultured in media without chemicals were used as a control. The culture was split by Accutase (Millipore) and treated with 1 μM Thiazovivin (Stemgent) in the first day after splitting. The iPSC colonies stained positive by Alexa Fluor 555 Mouse anti-Human TRA-1-81 antibody (BD Pharmingen) were picked up for expansion on feeder cells in hESCM and cultured routinely.\nNHEKs, Neonatal Human Epidermal Keratinocytes; HUVECs, Human Umbilical Vein Endothelial Cells; AHEKs, Adult Human Epidermal Keratinocytes; AFDCs, Amniotic Fluid Derived Cells. Chemical concentration used: PD, 0.5 μM PD0325901; A83, 0.5 μM A-83-01; PS48, 5 μM PS48; VPA, 0.5 mM Valproic acid; NaB, 0.25 mM Sodium butyrate; Par, 2 μM Parnate; CHIR, 3 μM CHIR99021. For four-factor or three-factor induced reprogramming, NHEKs were seeded at a density of 100,000 transduced cells per 10 cm dish and positive colonies were counted four-week later; For two-factor induced reprogramming, NHEKs were seeded at a density of 100,000 transduced cells per 10 cm dish and positive colonies were counted six-week later; For one-factor induced reprogramming, NHEKs and AHEKs were seeded at a density of 1,000,000 transduced cells per 10 cm dish and positive colonies were counted eight-week later; HUVECs and AFDCs were seeded at a density of 200,000 transduced cells per 10 cm dish and positive colonies were counted six-week later."}, "[2]": {"system": "human primary fibroblasts (CRL2097 or BJ)", "assay": "iPSC induction from human primary fibroblasts transduced with the four reprogramming factors, with compound treatment", "assay_type": "cell-based", "details": "for effect on reprogramming (in words): 4 factor-mediated reprogramming of fibroblasts", "method": "We tested known inhibitors of the TGFβ receptor and MEK on 1×10^4 (Feng, B. et al., Cell Stem Cell 4, 301-12 (2009)) human primary fibroblasts (CRL2097 or BJ) that were retrovirally transduced with the 4TFs, for their effect on reprogramming kinetics and efficiency (see FIG. 1a for details). On day 7 (D7) post-infection, the compounds were added, individually or in combinations, and the cultures were examined for iPSCs over the next 1-3 weeks.\nThe Slc7a1-expressing human fibroblast cells were seeded at 1×10^5 cells/well of a 6 well plate on the day 1. On day 2, 0.25 ml of each retroviral supernatant was added to the cells in the presence of 6 μg/ml polybrene. A second round of transduction was done on day 3. Infection efficiency was estimated by fluorescence microscopy on cells transduced in parallel with GFP or RFP gene-carrying retroviruses. Seven days after initial transduction, fibroblasts were harvested by trypsinization and re-plated at 1×10^4 cells/well of a 6 well plate coated with matrigel (1:50 dilution, cat 354234, BD Biosciences). For compound treatment, the cells were cultured in human reprogramming medium (DMEM/F12, 20% Knockout serum replacer, 1×MEM Non-Essential amino acid, lx glutamax, 0.11 mM 2-Mercaptoethanol, 20 ng/ml bFGF and 1,000 U/ml LIF) and were treated with 2 μM SB431542 (Stemgent), 0.5 μM PD0325901 (Stemgent), 0.5 μM Thiazovivin, or combinations of the compounds. The media were changed every 2-3 days depending on the cell density. Seven days after compound treatment, either the plates were fixed and stained for Alkaline phosphatase (ALP) activity, or stained for protein markers, or the cultures were continued with or without indicated splitting by trypsinization till day 30. For split cultures, the cells were split (1:4) and re-plated onto irradiated CF-1 MEF feeder layer (2.5×10^5 cells/well) in each well of 6 well plate and were split (1:10) again on day 21. The cells were maintained in the same media and compound cocktail described above except for the concentrations of PD0325901 (0.5 μM for D14 and 1 μM for D21) and SB431542 (0.5-1 μM after D14). The iPSC colonies were subsequently maintained in conventional hESC media in the absence of the above compounds.\nAlkaline phosphatase staining was performed using ALP detection kit (cat no: SCR004, Chemicon) according to the product instructions. For immunocytochemistry, cells were fixed in 4% paraformaldehyde (10 min, RT), washed twice with PBS, blocked using 5% normal donkey serum (Chemicon) and 0.1% TritonX-100 (15 min, RT) and then treated with primary antibodies overnight at 4° C. The primary antibodies used were anti-NANOG (cat no: AB9220, Chemicon, 1:1,000); anti-OCT4 (cat no: sc-5279, Santa Cruz biotech, 1:200), anti-SSEA 4 (cat no: mab4304, Chemicon, 1:500), anti-Tra-1-81 (cat 560123, BD Biosciences, 1:100), anti-Tra-1-81 (mAb 4381, Chemicon, 1:500), anti-βIII TUBULIN (cat no: MMS-435P, Covance Research Products Inc, 1:1000), anti-PDX 1 (1:500) (a kind gift from Dr. C. Wright), anti-BRACHYURY (cat No: AF2085, R & D, final concentration 0.2 μg/ml). The cells were washed twice with PBS and then treated with secondary antibodies for 1 hour at room temperature. The secondary antibodies used were Alexa fluor 488 donkey anti-rabbit or anti-mouse IgG (Invitrogen, 1:1,000) and Alexa fluor 555 donkey anti-rabbit or anti-mouse IgG (Invitrogen, 1:1,000). Nuclei were stained with 0.5 μg/ml DAPI (Sigma). Images were captured using a Nikon Eclipse TE2000-U/X-cite 120 EXFO microscope with a photometric CoolSnap HQ2 camera."}},
  "note": "Entries after “also recorded” stand apart in the source; their conditions may differ.",
  "data": [
    {"molecule": "CCCC(=O)[O-].[Na+]", "note": "[NaB, Sodium butyrate]", "values": [
      {"measurement": "generation of iPSCs / enhancement of reprogramming under OK condition (in words)", "setting": "[1]", "value": "substantially enhance reprogramming; also recorded: much more reliable and efficient"}
    ]},
    {"molecule": "O=C(NOC[C@H](O)CO)c1ccc(F)c(F)c1Nc1ccc(I)cc1F", "note": "[PD0325901]", "values": [
      {"measurement": "NANOG+ colonies at day 14", "setting": "[2]; 4TFs, D14, no splitting", "value": "no NANOG^+ colonies"}
    ]},
    {"molecule": "O=C(O)/C=C(/CCc1ccc(Cl)cc1)c1ccccc1", "note": "[PS48]", "values": [
      {"measurement": "generation of iPSCs / enhancement of reprogramming under OK condition (in words)", "setting": "[1]", "value": "substantially enhance reprogramming"},
      {"measurement": "enhancement of the reprogramming efficiency", "setting": "[1]; two factors/OK, with 0.5 μM PD0325901 and 0.5 μM A-83-01", "value": "about fifteen fold"}
    ]},
    {"molecule": "NC(=O)c1ccc(-c2nc(-c3ccc4c(c3)OCO4)c(-c3ccccn3)[nH]2)cc1", "note": "[SB431542]", "values": [
      {"measurement": "dose dependence of the effect on iPS cell generation", "setting": "[2]; 4TFs", "value": "dose dependent"},
      {"measurement": "ALP+ colonies with hESC-like morphology", "setting": "[2]; 4TFs, 1×10^4 cells, day 7 post-treatment (D14), SB431542 2 μM, PD0325901 0.5 μM", "value": "1-2 colonies"},
      {"measurement": "number of granulate (partially reprogrammed) colonies", "setting": "[2]; 4TFs, 30 days without splitting", "value": "outnumbered by several fold the few hESC-like colonies"}
    ]},
    {"molecule": "Cc1ccc2c(c1)C(=O)C1(O)CCN(c3ccccc3)C1=N2", "note": "(stereo not drawn) [blebbistatin]", "values": [
      {"measurement": "effect on reprogramming (in words)", "setting": "[2]", "value": "can be substituted for SB431542 (an ALK5 inhibitor), albeit with a reduced effect"}
    ]},
    {"molecule": "TGFβ", "values": [
      {"measurement": "effect on reprogramming (in words)", "setting": "[2]", "value": "inhibitory effect"}
    ]}
  ]
}
